In data set [1] the test system is Smoky-brown cockroaches. The note with it: for insect pest-controlling effect (in words): summary of Tables 5 and 6. From the text:
(§1) Contents of the test are as follows.
(§2) 1. A test plot having a floor area of about 9 m^2 (270 cm in length×340 cm in width×15 cm in height) as shown in FIG. 5 was set in the interior of a room of 470 cm in length×540 cm in width. The powdery chemical agent spraying device 1 in which the cylindrical body 23 is connected directly with a pump P is placed in the center of a test plot floor face 100; corrugated boxes (A), (B), and (C) each imitating a gap between a kitchen sink and a refrigerator are arranged near one side of the test plot floor face 100 (lower portion in FIG. 5); and a bait 101 and water 103 are arranged near the other side of the test plot floor face 100 (upper portion in FIG. 5). 2. Smoky-brown cockroaches are released on the test plot floor face 100 and habituated in the corrugated boxes (A), (B), and (C), and thereafter, the powdery chemical agent 30 is sprayed from the powdery chemical agent spraying device 1 in which a discharge port of the pump P set up at a pressure of 100 kPa is connected directly with the cylindrical body 23. (Number of test insects: 49 females and 48 males for dinotefura and 50 females and 49 males for d.d-T-cyphenothrin) 3. […] 4. A knockdown (KD) rate and a mortality rate at every passage of a time based on the count number are calculated.
Device in which the discharge port of the pump (rolling pump, manufactured by Okenseiko Co., Ltd.; two pumps of Model Nos. P30C02R8516 and M42C02R8516 coupled with each other) P is connected directly with the cylindrical body 23 (In order to confirm a breaking pressure of each of the sealing films 25 and 27, a pressure gauge G is placed therebetween.)
Cylindrical body 23: The same as the cylindrical body 23 used in the measuring test of falling amount of chemical agent on floor face of Example 1.
Sealing films 25 and 27: The same as the sealing films 25 and 27 used in the measuring test of falling amount of chemical agent on floor face of Example 1.
(§3) Corrugated boxes (A) and (B): Two holes (2 cm×2 cm) through which the cockroach can come and go are opened in front of a corrugated box of 50 cm in length×50 cm in width×25 cm in height.
(§4) Corrugated box (C): The front and the rear of a corrugated box of 50 cm in length×50 cm in width×3 cm in height are fully opened.

For data set [2], the system named is Smoky-brown cockroaches.
Excerpt: as §1
as §2, with “FIG. 4” for “FIG. 5”, “1” for “1 in which the cylindrical body 23 is connected directly with a pump P”, “FIG. 4);” for “FIG. 5);”, “FIG. 4).” for “FIG. 5).”, “2. 28 females and 29 males of smoky-brown” for “2. Smoky-brown”, “device 1. […]” for “device 1 in which a discharge port of the pump P set up at a pressure of 100 kPa is connected directly with the cylindrical body 23. (Number of test insects: 49 females and 48 males for dinotefura and 50 females and 49 males for d.d-T-cyphenothrin)”
Container body 11: PET bottle having a capacity of 280 mL
Cylindrical body 23: Acrylic pipe having an inside diameter of 7 mm and a length of 50 mm
Sealing film 25: Parafilm (trade name: […] M, 4 inch×125 feet)
Sealing film 27: Parafilm (trade name: […] M, 4 inch×125 feet)
The Parafilm was wound around each end part of the cylindrical body 23 to prepare the sealing films 25 and 27, respectively.
The Parafilm was wound without being stretched and adjusted such that a pressure at the time of breaking of each of the sealing films 25 and 27 was 100 kPa.
Sodium bicarbonate 41: 3.8 g
as §3, §4

Like-named read-outs stand apart in the source and are kept apart here.

As to `CN/C(=N/CC1CCOC1)N[N+](=O)[O-]` (stereo not drawn) [Chemical agent B, dinotefuran], the KD and mortality with Smoky-brown cockroaches [1] (passage of time 2 hr) was found to be 3%; with Smoky-brown cockroaches [1] (passage of time 14.5 hr) it was 59%; with Smoky-brown cockroaches [1] (passage of time 16 hr), 71%; in the data set with Smoky-brown cockroaches [1] (passage of time 23 hr), 82%; with Smoky-brown cockroaches [1] (passage of time 43 hr), 96%; with Smoky-brown cockroaches [1] (passage of time 48 hr), 96%. The KD and mortality was determined as 2% with Smoky-brown cockroaches [1] (passage of time […]); 2% with Smoky-brown cockroaches [2] (passage of time 3 hr); 9% in the data set with Smoky-brown cockroaches [2] (passage of time 6 hr); 40% in the data set on Smoky-brown cockroaches [2] (passage of time 18 hr); 88% with Smoky-brown cockroaches [2] (passage of time 24 hr); 95% in the data set on Smoky-brown cockroaches [2] (passage of time 32 hr). The same compound had a KD and mortality in the data set on Smoky-brown cockroaches [2] (passage of time 48 hr) of 96%. Also, the KD turned out to be 43% with Smoky-brown cockroaches [1] (passage of time 14.5 hr); 18% in the data set on Smoky-brown cockroaches [1] (passage of time 43 hr); 15% in the data set with Smoky-brown cockroaches [1] (passage of time 48 hr); 25% in the data set with Smoky-brown cockroaches [2] (passage of time 18 hr); 9% in the data set on Smoky-brown cockroaches [2] (passage of time 32 hr); 7% in the data set with Smoky-brown cockroaches [2] (passage of time 48 hr). Also, the “insect pest-controlling effect (in words)” value in the data set with Smoky-brown cockroaches [1] was “a high effectiveness is obtained”.

With `CC(C)=CC1C(C(=O)OC(C#N)c2cccc(Oc3ccccc3)c2)C1(C)C` (stereo not drawn) [d.d-T-cyphenothrin], the “insect pest-controlling effect (in words)” value in the data set with Smoky-brown cockroaches [1] was “a high insect pest-exterminating effect could be obtained”.

The values are drawn from patent US20150296765A1, “DEVICE FOR SPRAYING POWDERY CHEMICAL AGENT AND PROCESS FOR SPRAYING POWDERY CHEMICAL AGENT” (EARTH CHEMICAL CO., LTD., priority 2012, published 2015).
